System: SYO-1 tumor spheroids, viability % test/control
Assay: Anticancer human tumor SYO-1 cell line growth inhibition;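 further: spheroids exposed to agents for 7 days before viability read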;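 on viability, T/C: 100% = DMSO vehicle control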
Conditions: spheroids with HUVEC and MSC; for IC50: curve of first compound; for viability, T/C: stronger effect = lower value
From the text: Multicellular complex tumor spheroid response to DNA repair inhibitors in combination with DNA-damaging drugs
This study explores the anticancer activities of DNA-damaging drugs and inhibitors of DNA damage repair, both as single agents and in combinations. Complex tumor spheroids comprised of malignant cells, endothelial cells and mesenchymal stem cells served as an in vitro model for human solid tumors. This model system incorporates physiologically relevant features and patient-derived or established malignant cell lines with clinically relevant genetic alterations from many tumor types. Twenty-six patient-derived or established malignant cell lines were evaluated representing sarcoma, melanoma, small cell lung cancer (SCLC), non-small cell lung cancer (NSCLC), as well as bladder, ovarian and pancreatic cancers. The concentration ranges selected for each drug and investigational agent were based upon clinically achievable concentrations if the clinical Cmax of the agent was known.
Compounds. The drugs and compounds olaparib (NSC753686), talazoparib (NSC767125), berzosertib (NSC777718), elimusertib (NSC800525), nedisertib (NSC802822), VX-984 (NSC792969), AZD-1390 (NSC803789), temozolomide (NSC362856), topotecan (NSC609699), trabectedin (NSC813783), staurosporine (NSC755774), and gemcitabine (NSC613327) were obtained from the National Cancer Institute (NCI) Developmental Therapeutics Program Chemical Repository. The FDA-approved anticancer drug set is available from the Developmental Therapeutics Program at https://dtp.cancer.gov/organization/dscb/obtaining/available_plates.htm. […] The stock solutions were prepared in dimethyl sulfoxide (DMSO, Sigma-Aldrich, St. Louis, MO, cat. D2650) at 400-fold the tested concentration and stored at -70 degrees C. Prior to their use, the stock solutions were diluted in fresh medium and the final DMSO concentration in the assay was 0.25% (v/v). All drugs and investigational agents were tested over a range starting from a high concentration at or near the clinical Cmax and decreasing in half-log increments. If the clinical Cmax for an agent had not been determined, the highest concentration tested was 10 microM.
Cell Lines. The patient-derived cancer cell (PDC) lines: 156681-154-R-J1-PDC, 283228-195-R-J1-PDC, 287954-098-R-J1-PDC, 292921-168-R-J2-PDC, 349418-098-R-PDC, 425362-245-T-J1-PDC, 556581-035-R-J1-PDC, and BL0293-F563-PDC were received from the NCI Patient-Derived Models Repository (PDMR, https://pdmr.cancer.gov). The established cell lines HS-SY-2 (RRID:CVCL_8719), MPNST, and SYO-1 (RRID:CVCL_7146) were obtained from the Sloan Kettering Institute. The alveolar soft parts sarcoma cell line ASPS-1 (RRID:CVCL_S738) was established at the NCI and grown from internal seed stocks. The following established cell lines were purchased from the American Type Culture Collection (ATCC, Manassas, VA): G-401 (ATCC, cat. CRL-1441, RRID:CVCL_0270), SW982 (ATCC, cat. HTB-93, RRID:CVCL_1734), VA-ES-BJ (ATCC, cat. CRL-2138, RRID:CVCL_1785), NCI-H719 (ATCC, cat. CRL-5837, RRID:CVCL_1582), NCI-H196 (ATCC, cat. CRL-5823, RRID:CVCL_1509), NCI-H841 (ATCC, cat. CRL-5845, RRID:CVCL_1595), NCI-H1618 (ATCC, cat. CRL-5879, RRID:CVCL_1480), NCI-H1876 (ATCC, cat. CRL-5902, RRID:CVCL_1503), DMS 114 (ATCC, cat. CRL-2066; RRID:CVCL_1174), NCI-H211 (ATCC, cat. CRL-5824; RRID:CVCL_1529), and SW 1271 (ATCC, cat. CRL-2177, RRID:CVCL_1716). The small cell lung cancer cell line COR-L88 was purchased from Sigma-Aldrich (cat. 92031917-1VL, RRID:CVCL_1141). The non-small cell lung cancer cell lines NCI-H226 (RRID:CVCL_1544) and NCI-H322M (RRID:CVCL_1557) were established at the NCI and grown from internal seed stocks. Pooled donor human umbilical vein endothelial cells (HUVEC, Lonza, cat. CC-2519) and human mesenchymal stem cells (hMSC, Lonza, cat. PT-2501) were purchased from Lonza (Walkersville, MD).
Cell Culture. All cells were maintained in an incubator at 37 degrees C and 5% CO2 with 95% humidity. […]

## Cc1cc(C)c(CNC(=O)c2cc(-c3ccc(CN4CCOCC4)cc3)cc3c2cnn3C2CCCC2)c(=O)[nH]1 + CC[C@@]1(O)C(=O)OCc2c1cc1n(c2=O)Cc2cc3c(CN(C)C)c(O)ccc3nc2-1
Second compound 0.003 µM
  IC50: 8350 nM
Second compound 0.00949 µM
  IC50: < 31.6 nM
Second compound 0.03 µM
  IC50: < 31.6 nM
Second compound 0.0949 µM
  IC50: < 31.6 nM
Second compound 0.3 µM
  IC50: < 31.6 nM
Second compound 0.003 µM, first compound 0.0316 µM
  viability, T/C: 89.3%
Second compound 0.003 µM, first compound 0.1 µM
  viability, T/C: 90.5%
Second compound 0.003 µM, first compound 0.316 µM
  viability, T/C: 91.4%
Second compound 0.003 µM, first compound 1 µM
  viability, T/C: 91.9%
Second compound 0.003 µM, first compound 3.16 µM
  viability, T/C: 80.6%
Second compound 0.003 µM, first compound 10 µM
  viability, T/C: 43.9%
Second compound 0.00949 µM, first compound 0.0316 µM
  viability, T/C: 10.4%
Second compound 0.00949 µM, first compound 0.1 µM
  viability, T/C: 9.41%
Second compound 0.00949 µM, first compound 0.316 µM
  viability, T/C: 15.2%
Second compound 0.00949 µM, first compound 1 µM
  viability, T/C: 12.5%
Second compound 0.00949 µM, first compound 3.16 µM
  viability, T/C: 8.6%
Second compound 0.00949 µM, first compound 10 µM
  viability, T/C: 3.78%
Second compound 0.03 µM, first compound 0.0316 µM
  viability, T/C: 1.69%
Second compound 0.03 µM, first compound 0.1 µM
  viability, T/C: 1.58%
Second compound 0.03 µM, first compound 0.316 µM
  viability, T/C: 1.52%
Second compound 0.03 µM, first compound 1 µM
  viability, T/C: 1.59%
Second compound 0.03 µM, first compound 3.16 µM
  viability, T/C: 1.68%
Second compound 0.03 µM, first compound 10 µM
  viability, T/C: 2.01%
Second compound 0.0949 µM, first compound 0.0316 µM
  viability, T/C: 1.54%
Second compound 0.0949 µM, first compound 0.1 µM
  viability, T/C: 1.74%
Second compound 0.0949 µM, first compound 0.316 µM
  viability, T/C: 1.49%
Second compound 0.0949 µM, first compound 1 µM
  viability, T/C: 1.89%
Second compound 0.0949 µM, first compound 3.16 µM
  viability, T/C: 2.19%
Second compound 0.0949 µM, first compound 10 µM
  viability, T/C: 1.93%
Second compound 0.3 µM, first compound 0.0316 µM
  viability, T/C: 1.86%
Second compound 0.3 µM, first compound 0.1 µM
  viability, T/C: 1.8%
Second compound 0.3 µM, first compound 0.316 µM
  viability, T/C: 2.05%
Second compound 0.3 µM, first compound 1 µM
  viability, T/C: 2.19%
Second compound 0.3 µM, first compound 3.16 µM
  viability, T/C: 2.23%
Second compound 0.3 µM, first compound 10 µM
  viability, T/C: 1.83%

## Cc1sc2c(c1C)C(c1ccc(Cl)cc1)=NC(CC(=O)Nc1ccc(O)cc1)c1nnc(C)n1-2 (stereo not given) + CC[C@@]1(O)C(=O)OCc2c1cc1n(c2=O)Cc2cc3c(CN(C)C)c(O)ccc3nc2-1
Second compound 0.003 µM
  IC50: 43.4 nM
Second compound 0.00949 µM
  IC50: < 9.49 nM
Second compound 0.03 µM
  IC50: < 9.49 nM
Second compound 0.0949 µM
  IC50: < 9.49 nM
Second compound 0.3 µM
  IC50: < 9.49 nM
Second compound 0.003 µM, first compound 0.00949 µM
  viability, T/C: 84.9%
Second compound 0.003 µM, first compound 0.03 µM
  viability, T/C: 70.3%
Second compound 0.003 µM, first compound 0.0949 µM
  viability, T/C: 7.08%
Second compound 0.003 µM, first compound 0.3 µM
  viability, T/C: 0.99%
Second compound 0.003 µM, first compound 0.949 µM
  viability, T/C: 0.77%
Second compound 0.003 µM, first compound 3 µM
  viability, T/C: 0.63%
Second compound 0.00949 µM, first compound 0.00949 µM
  viability, T/C: 6.31%
Second compound 0.00949 µM, first compound 0.03 µM
  viability, T/C: 3.24%
Second compound 0.00949 µM, first compound 0.0949 µM
  viability, T/C: 1.18%
Second compound 0.00949 µM, first compound 0.3 µM
  viability, T/C: 1.31%
Second compound 0.00949 µM, first compound 0.949 µM
  viability, T/C: 0.7%
Second compound 0.00949 µM, first compound 3 µM
  viability, T/C: 0.6%
Second compound 0.03 µM, first compound 0.00949 µM
  viability, T/C: 1.74%
Second compound 0.03 µM, first compound 0.03 µM
  viability, T/C: 1.47%
Second compound 0.03 µM, first compound 0.0949 µM
  viability, T/C: 1.35%
Second compound 0.03 µM, first compound 0.3 µM
  viability, T/C: 7.03%
Second compound 0.03 µM, first compound 0.949 µM
  viability, T/C: 0.62%
Second compound 0.03 µM, first compound 3 µM
  viability, T/C: 0.49%
Second compound 0.0949 µM, first compound 0.00949 µM
  viability, T/C: 1.62%
Second compound 0.0949 µM, first compound 0.03 µM
  viability, T/C: 1.4%
Second compound 0.0949 µM, first compound 0.0949 µM
  viability, T/C: 0.87%
Second compound 0.0949 µM, first compound 0.3 µM
  viability, T/C: 1.04%
Second compound 0.0949 µM, first compound 0.949 µM
  viability, T/C: 0.66%
Second compound 0.0949 µM, first compound 3 µM
  viability, T/C: 0.74%
Second compound 0.3 µM, first compound 0.00949 µM
  viability, T/C: 1.64%
Second compound 0.3 µM, first compound 0.03 µM
  viability, T/C: 1.48%
Second compound 0.3 µM, first compound 0.0949 µM
  viability, T/C: 1.05%
Second compound 0.3 µM, first compound 0.3 µM
  viability, T/C: 0.75%
Second compound 0.3 µM, first compound 0.949 µM
  viability, T/C: 0.47%
Second compound 0.3 µM, first compound 3 µM
  viability, T/C: 0.55%
